Target: T1, TRPV1 channels (Homo sapiens, UniProt Q8NER1)
T1 construct: expressed in transfected cells; host or cells: HEK TRex (HEK 293 T-REx) cells stably carrying a tetracycline-inducible TRPV1 transgene
Assay: Calcium assay (Fluo-4) in HEK-TRPV1 cells, dose response comparison
Format: cell-based
Settings: Fluo-4 loaded, 1 mM external calcium chloride, 0-20 seconds baseline, compound added at 20 seconds, FIGS. 1A-1D
Protocol: Molecular Pharmacology, 2016, volume 90, pages 300-308) HEK 293 cells with TRPV1 channels have been used as model systems (P. Geppetti and M. Trevisani, Activation and sensitisation of the vanilloid receptor: role in gastrointestinal inflammation and function, British Journal of Pharmacology, 2004, volume 141, pages 1313-1320);
HEK TRexTRPV1 cultured in DMEM, 10% Fetal Bovine Serum, 2 mM L-glutamine, 10 microgramg/ml Blasticidin (Calbiochem, San Diego Calif.), […] Zeocin (InvivoGen, San Diego Calif.), followed by inducing indicated transgene expression using 1 microgram/ml Tetracycline for 16-24 hrs. Comparisons made to untransfected HEK cells or HEKTRexTRPV1 with or without induction.
Cells washed and incubated with 0.2 micromolar Fluo-4 [54] for 30 minutes at 37° C. in a standard modified Ringer's solution of the following composition (in mM): NaCl 145, KCl 2.8, CsCl 10, CaCl2 10, MgCl2 2, glucose 10, Hepes. NaOH 10, pH 7.4, 330 mOsm. Cells transferred to 96-well plates at 50,000 cells/well and stimulated as indicated. Calcium signals acquired using a Flexstation 3 (Molecular Devices, Sunnydale, USA). Data are analyzed according to the methods in 1. Diaz-Franulic, J. Caceres-Molina, R. V. Sepulveda, F. Gonzalez-Nilo, R. Latorre, Structure-Driven Pharmacology of Transient Receptor Potential Channel Vanilloid 1, Molecular Pharmacology, 2016, volume 90, pages 300-8. […]

T1 sequence (Q8NER1 whole entry): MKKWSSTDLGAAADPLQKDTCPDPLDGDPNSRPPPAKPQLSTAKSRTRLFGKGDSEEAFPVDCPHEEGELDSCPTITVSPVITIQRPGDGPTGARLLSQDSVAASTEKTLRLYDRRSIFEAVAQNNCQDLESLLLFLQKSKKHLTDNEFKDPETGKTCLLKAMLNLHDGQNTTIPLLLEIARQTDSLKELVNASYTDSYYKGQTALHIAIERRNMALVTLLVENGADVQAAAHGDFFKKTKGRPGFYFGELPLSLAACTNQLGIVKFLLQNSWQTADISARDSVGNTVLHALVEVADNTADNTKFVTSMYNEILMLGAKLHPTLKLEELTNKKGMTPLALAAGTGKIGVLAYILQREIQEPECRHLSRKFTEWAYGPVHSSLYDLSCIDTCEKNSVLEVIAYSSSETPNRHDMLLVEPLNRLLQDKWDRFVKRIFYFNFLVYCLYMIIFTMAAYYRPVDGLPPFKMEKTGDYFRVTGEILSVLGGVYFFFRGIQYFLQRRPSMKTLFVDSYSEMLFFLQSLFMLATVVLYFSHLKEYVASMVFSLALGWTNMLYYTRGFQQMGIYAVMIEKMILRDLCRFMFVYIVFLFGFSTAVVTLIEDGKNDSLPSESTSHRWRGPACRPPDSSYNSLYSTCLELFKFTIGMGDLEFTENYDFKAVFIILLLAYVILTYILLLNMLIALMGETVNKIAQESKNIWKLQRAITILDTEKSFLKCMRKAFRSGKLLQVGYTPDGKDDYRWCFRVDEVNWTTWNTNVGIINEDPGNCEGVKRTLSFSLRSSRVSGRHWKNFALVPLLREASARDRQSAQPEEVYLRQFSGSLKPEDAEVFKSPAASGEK

C=C(C)[C@@H]1CCC(C)=C[C@H]1c1c(O)cc(CCCCC)cc1O [cannabidiol (11, CBD), Cannabidiol]
“biological finger print” and dose response on TRPV 1 channels (calcium signal), synthesized versus reference standard cannabidiol: same “biological finger print” and dose response
